In patent US9676725B2, “S-crystal form of ivabradine hydrochloride, and preparation method and pharmaceutical composition thereof” (Beijing Lunarsun Pharmaceutical Co., LTD., priority 2014, dated 2017):
Values belong to the molecule of their own block, whether it stands above or below them.

Assays:
Assay type in all cases: physicochemical
[1] = High-temperature stability test at 60° C.; conditions: for Content / Properties / Relevant substances: Max single impurity / Relevant substances: Total impurities: 60° C.
Description: Thus, the product could be stored stably in storehouse at room temperature.

[2] = Humidity stability test (moisture and XRD); conditions: for Moisture: open, humidity 43.1±0.5%, room temperature (20° C.); for Change of crystal form on water absorption: stored in open condition under humidity 43.1±0.5%, water content up to 3%, hydrochloride
Description: The S crystal form of ivabradine hydrochloride as prepared in Example 2 was spread on watch glass to form a thin layer and placed in the upper part of a desiccator, and saturated potassium carbonate solution was placed in the lower part of the desiccator, the humidity in the desiccator was detected (humidity: 43.1±0.5%), conditions were controlled at room temperature (20° C.) and constant humidity, and samples were taken at 1 h, 8 h, 16 h, 24 h, 48 h, 96 h for moisture and XRD tests, and the results are shown in the following table.

[3] = Storage of crystal form at room temperature (crystal form transformation); conditions: 10 days storage at room temperature
Description: Although many crystal forms have been reported in the documents, their stability and preparation methods are not satisfied. […] Delta crystal form contains acetonitrile which can hardly be removed, and it is difficult to distinguish from acetonitrile-containing crystal form. In addition, ivabradine hydrochloride as a hydrochloride is very easy to absorb moisture, while the change of water content may result in changes of many crystal forms, for example, the change between γd and γ, the change between βd and β.

Content ([1]; the 0th day): 99.50%
Properties ([1]; the 0th day): White
Relevant substances: Max single impurity ([1]; the 0th day): 0.04%
Relevant substances: Total impurities ([1]; the 0th day): 0.19%
Content ([1]; the 5th day): 99.40%
Properties ([1]; the 5th day): White
Relevant substances: Max single impurity ([1]; the 5th day): 0.05%
Relevant substances: Total impurities ([1]; the 5th day): 0.20%
Content ([1]; the 10th day): 99.50%
Properties ([1]; the 10th day): White
Relevant substances: Max single impurity ([1]; the 10th day): 0.05%
Relevant substances: Total impurities ([1]; the 10th day): 0.20%
Change of indicators, e.g. purity, versus the 0th day ([1]; stored at 60° C. for 10 days): did not change significantly
Stability of crystal form ([1]; stored at 60° C. for 10 days): very stable
Moisture ([2]; 1 h): 0.46%
Moisture ([2]; 8 h): 0.55%
Moisture ([2]; 16 h): 0.60%
Moisture ([2]; 24 h): 0.82%
Moisture ([2]; 48 h): 1.4%
Moisture ([2]; 96 h): 3.0%
Change of crystal form on water absorption ([2]; listed as S crystal form): does not change
Change of crystal form on water absorption ([2]; listed as the product): did not change
Structure (SMILES): COc1cc2c(cc1OC)CC(=O)N(CCCN(C)C[C@H]1Cc3cc(OC)c(OC)cc31)CC2.Cl [3-{3-[{[(7S)-3,4-dimethoxybicyclo[4.2.0]octa-1,3,5-trien-7-yl]-methyl}(methyl)-amino]propyl}-7,8-dimethoxy-1,3,4,5-tetrahydro-2H-3-benzazepin-2-one hydrochloride]

Structure (SMILES): COc1cc2c(cc1OC)CC(=O)N(CCCN(C)C[C@H]1Cc3cc(OC)c(OC)cc31)CC2.Cl [δd crystal form, 3-{3-[{[(7S)-3,4-dimethoxybicyclo[4.2.0]octa-1,3,5-trien-7-yl]-methyl}(methyl)-amino]propyl}-7,8-dimethoxy-1,3,4,5-tetrahydro-2H-3-benzazepin-2-one hydrochloride]
Crystal form transformation on storage [3]: most of the δd crystal form will transform into α crystal form
